Patent US9180135B2, “Miliacin and sphingolipids and/or phospholipids composition for hair and scalp care” (HITEX, priority 2013, dated 2015)

System: hair bulb root cells (keratinocytes)
Experiment: In vitro test: cellular proliferation of root cells (keratinocytes) in cultured human scalp fragments, anti-Ki67 immunohistochemistry
Type: cell-based
Conditions: cultures stopped on D4, 1.7 μg/ml of miliacin, Ki67-positive cells
Protocol: This test consists of studying the cellular proliferation of root cells (keratinocytes). Indeed, as mentioned above, cellular proliferation at the hair bulb matrix promotes hair growth.
Composition A: 1.7 μg/ml of miliacin
Composition B: 150 μg/ml of the composition disclosed herein, Keranat, comprising: • 1.7 μg/ml of miliacin (1.1% of mixture) • 0.30 μg/ml of glycosylceramides and ceramides (0.21% of mixture) • 1.2 μg/ml of phospholipids (0.8% of mixture) Methodology
Human scalp fragments were obtained in plastic surgery from twelve different donors from the occipital area prior to hair implantation. They were deposited in inserts, in turn placed in culture wells. Culture medium specifically suitable for maintaining survival conditions (antibiotic, foetal calf serum (FCS)) was added to the bottom of the wells, running a passage by slow diffusion between the two compartments via a 3 μm thick porous membrane.
The composition is added in dilution at a predetermined dose, in the culture medium to promote contact with the hair bulbs. […]
The root proliferation was analysed by means of immunohistochemistry using an anti-Ki67 antibody marker of phase M, S, G1 and G2 cells in the cell cycle (mouse monoclonal antibody, MIB1 clone, diluted to 1:300, marketed by Dako). […]
On each bulb, the number of positive cells is counted with respect to a total of approximately 100 cells. […]

miliacin [Composition A]
Results (% of proliferating cells compared to control): +92% | Results (% of proliferating cells compared to control) (listed as millet oil alone): 92%
